From patent publication US9926297B2, “Bicyclic AZA compounds as muscarinic M1 receptor and/or M4 receptor agonists” (Heptares Therapeutics Limited, priority 2014, dated 2018)
Read-outs that look alike come from different tables or passages of the source.

Key:
[1] = biological target: T1, human muscarinic M1 receptor (Homo sapiens, UniProt P11229); assay: Alphascreen Surefire phospho-ERK1/2 functional assay, M1; type: cell-based; settings: for EC50 / % Emax cf. ACh, M1: CHO cells stably expressing human M1; for EC50: phospho-ERK1/2, * = variable results, read-out: pEC50 M1 (converted); for Emax: CHO
T1 sequence (P11229 1-460): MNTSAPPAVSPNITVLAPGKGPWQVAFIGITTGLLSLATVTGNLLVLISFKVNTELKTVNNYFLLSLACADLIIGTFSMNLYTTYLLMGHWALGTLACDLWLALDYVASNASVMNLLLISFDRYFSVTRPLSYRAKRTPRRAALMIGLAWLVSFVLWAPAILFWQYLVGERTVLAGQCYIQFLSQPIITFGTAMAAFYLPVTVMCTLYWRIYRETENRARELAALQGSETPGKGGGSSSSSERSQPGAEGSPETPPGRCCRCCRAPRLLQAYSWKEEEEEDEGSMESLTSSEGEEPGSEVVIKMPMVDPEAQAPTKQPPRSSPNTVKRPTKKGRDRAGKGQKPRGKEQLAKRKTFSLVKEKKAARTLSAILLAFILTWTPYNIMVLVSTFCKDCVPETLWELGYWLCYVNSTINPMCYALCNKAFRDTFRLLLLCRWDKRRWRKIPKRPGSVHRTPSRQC

[2] = biological target: T2, human muscarinic M4 receptor (Homo sapiens, UniProt P08173); assay: Alphascreen Surefire phospho-ERK1/2 functional assay, M4; type: cell-based; settings: for EC50 / % Emax cf. ACh, M4: CHO cells stably expressing human M4; for EC50: phospho-ERK1/2, * = variable results, read-out: pEC50 M4 (converted); for Emax: CHO
T2 construct: expressed in transfected cells
T2 sequence (P08173 1-479): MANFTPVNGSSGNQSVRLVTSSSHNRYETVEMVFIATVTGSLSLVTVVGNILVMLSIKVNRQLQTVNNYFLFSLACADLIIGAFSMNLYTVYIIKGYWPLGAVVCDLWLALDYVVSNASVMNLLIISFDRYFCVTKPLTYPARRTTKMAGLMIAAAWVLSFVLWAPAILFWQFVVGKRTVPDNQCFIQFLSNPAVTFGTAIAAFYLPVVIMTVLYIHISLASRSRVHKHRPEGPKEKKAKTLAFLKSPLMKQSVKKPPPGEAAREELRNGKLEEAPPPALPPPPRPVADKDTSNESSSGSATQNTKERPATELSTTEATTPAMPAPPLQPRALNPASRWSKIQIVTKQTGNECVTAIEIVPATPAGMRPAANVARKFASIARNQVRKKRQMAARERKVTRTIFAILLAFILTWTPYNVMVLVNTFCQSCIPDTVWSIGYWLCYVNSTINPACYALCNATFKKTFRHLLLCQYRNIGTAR

[3] = read-out: % Emax cf. ACh, M1, CHO cells stably expressing human M1, relative to ACh
[4] = read-out: % Emax cf. ACh, M4, CHO cells stably expressing human M4, relative to ACh

| EC50 [1] [nM] | EC50 [2] [nM] | Emax [1, 3] [%] | Emax [2, 4] [%] | % Emax cf. ACh, M1 ([1]; relative to ACh) [%] | % Emax cf. ACh, M4 ([2]; relative to ACh) [%] | Structure (SMILES) | Emax ([1]; read-out: % Emax cf. ACh, M1) [%] | Emax ([2]; read-out: % Emax cf. ACh, M4) [%] |
| --- | --- | --- | --- | --- | --- | --- | --- | --- |
| 1000 | 158 | 59 | 60 | – | – | CCOC(=O)N1CCC2(CC(N3CCC(N4C(=O)OC[C@@H]4CC)CC3)C2)C1 (single isomer, unassigned) [2-122 Isomer 2] | – | – |
| > 20000 | 10 | – | – | 37 | 70 | CCOC(=O)N1CCC2(CC(N3CCC([C@@H]4CCCN4C(=O)N4Cc5cccnc5C4)CC3)C2)C1 (single isomer, unassigned) [2-133 Isomer 1] | – | – |
| > 20000 | 251 | 60 | 73 | – | – | CCOC(=O)N1CCC2(CC(N3CCC(c4nnnn4CC)CC3)C2)C1 (single isomer, unassigned) [1-65 Isomer 2, ethyl 2-[4-(1-ethyl-1H-tetrazol-5-yl)piperidin-1-yl]-6-azaspiro[3.4]octane-6-carboxylate] | – | – |
| > 20000 | 126 | 33 | 84 | – | – | CCOC(=O)N1CCC2(CC(N3CCC(N4C(=O)OC[C@H]4C)CC3)C2)C1 (single isomer, unassigned) [2-118 Isomer 2] | – | – |
| 251 | 39.8 | 60 | 36 | – | – | CCOC(=O)N1CCC2(CC(N3CCC(c4cc(C)c[nH]c4=O)CC3)C2)C1 (single isomer, unassigned) [3-15 Isomer 2, ethyl 2-[4-(5-methyl-2-oxo-1,2-dihydropyridin-3-yl)piperidin-1-yl]-6-azaspiro[3.4]octane-6-carboxylate] | – | – |
| 398 | 316 | 96 | 87 | – | – | CCOC(=O)N1CCC2(CC(N3CCC(N4C(=O)OC[C@H]4C(C)C)CC3)C2)C1 (single isomer, unassigned) [2-120 Isomer 2] | – | – |
| 3160 | 316 | 37 | 75 | – | – | CCOC(=O)N1CCC2(CC(N3CCC(c4nnnn4C4CC4)CC3)C2)C1 (single isomer, unassigned) [1-67 Isomer 2, ethyl 2-[4-(1-cyclopropyl-1H-tetrazol-5-yl)piperidin-1-yl]-6-azaspiro[3.4]octane-6-carboxylate] | – | – |
| > 20000 | 794 | 57 | 48 | – | – | COC(=O)N1CCC2(CC(N3CCC(c4ncc(C)n4C)CC3)C2)C1 (single isomer, unassigned) [1-9 Isomer 2, methyl 2-[4-(1,5-dimethyl-1H-imidazol-2-yl)piperidin-1-yl]-6-azaspiro[3.4]octane-6-carboxylate] | – | – |
| 1260 | > 20000 | 73 | 10 | – | – | CCOC(=O)N1CCC2(CC(N3CCC(n4cnnn4)CC3)C2)C1 (single isomer, unassigned) [1-62 Isomer 2, ethyl 2-[4-(1H-tetrazol-1-yl)piperidin-1-yl]-6-azaspiro[3.4]octane-6-carboxylate] | – | – |
| 3980 | 158 | – | – | 37 | 52 | CCOC(=O)N1CCC2(CC(N3CCC([C@@H]4CCCN4CCC(F)(F)F)CC3)C2)C1 (single isomer, unassigned) [2-70 Isomer 1] | – | – |
| 2510 | 100 | 36 | 91 | – | – | COC(=O)N1CCC2(CC(N3CCC([C@@H]4CCCN4C(=O)N4CC(F)(F)C4)CC3)C2)C1 (single isomer, unassigned) [2-41 Isomer 2] | – | – |
| > 20000 | 200 | 26 | 38 | – | – | CCOC(=O)N1CCC2(CC(N3CCC(N4CC5CC5C4)CC3)C2)C1 (single isomer, unassigned) [2-105 Isomer 2, ethyl 2-[4-(3-azabicyclo[3.1.0]hex-3-yl)piperidin-1-yl]-6-azaspiro[3.4]octane-6-carboxylate] | – | – |
| 1580 | 251 | 98 | 85 | – | – | COC(=O)N1CCC2(CC(N3CCC(c4nc(C)cn4C)CC3)C2)C1 (single isomer, unassigned) [1-11 Isomer 2, methyl 2-[4-(1,4-dimethyl-1H-imidazol-2-yl)piperidin-1-yl]-6-azaspiro[3.4]octane-6-carboxylate] | – | – |
| 2510 | 126 | 85 | 84 | – | – | CCOC(=O)N1CCC2(CC(N3CCC(N4C(=O)OC[C@H]4CC)CC3)C2)C1 (single isomer, unassigned) [2-119 Isomer 2] | – | – |
| > 20000 | 63.1 | 18 | 95 | – | – | CCOC(=O)N1CCC2(CC(N3CCC(N4C[C@H](F)C[C@@H]4C(=O)OC)CC3)C2)C1 (single isomer, unassigned) [2-134 Isomer 2] | – | – |
| > 20000 | 100 | 40 | 39 | – | – | CCOC(=O)N1CCC2(CC(N3CCC(c4cnc(OC)c(C)c4)CC3)C2)C1 (single isomer, unassigned) [3-7 Isomer 2, ethyl 2-[4-(6-methoxy-5-methylpyridin-3-yl)piperidin-1-yl]-6-azaspiro[3.4]octane-6-carboxylate] | – | – |
| 1000 | 251 | 55 | 67 | – | – | CCOC(=O)N1CCC2(CC(N3CCC(c4nc(C#N)c[nH]4)CC3)C2)C1 (single isomer, unassigned) [1-4 Isomer 2, ethyl 2-[4-(4-cyano-1H-imidazol-2-yl)piperidin-1-yl]-6-azaspiro[3.4]octane-6-carboxylate] | – | – |
| > 20000 | 316 | 7 | 31 | – | – | CCOC(=O)N1CCC2(CC(N3CCC(C4CCCN4C)CC3)C2)C1 (single isomer, unassigned) [2-22 Isomer 2, ethyl 2-[4-(1-methylpyrrolidin-2-yl)piperidin-1-yl]-6-azaspiro[3.4]octane-6-carboxylate] | – | – |
| 631 | 12.6 | – | – | – | – | CCOC(=O)N1CCC2(CC(N3CCC(N4C[C@H](F)C[C@@H]4CO)CC3)C2)C1 (single isomer, unassigned) [2-136 Isomer 2] | – | – |
| 5010 | 126 | 39 | 56 | – | – | CCOC(=O)N1CCC2(CC(N3CCC([C@@H]4CCCN4CCOC)CC3)C2)C1 (single isomer, unassigned) [2-71 Isomer 2] | – | – |
| > 20000 | 631 | 63 | 68 | – | – | CCCn1nccc1C1CCN(C2CC3(CCN(C(=O)OC)C3)C2)CC1 (single isomer, unassigned) [1-48 Isomer 2, methyl 2-[4-(1-propyl-1H-pyrazol-5-yl)piperidin-1-yl]-6-azaspiro[3.4]octane-6-carboxylate] | – | – |
| 5010 | 1260 | 38 | 80 | – | – | CCOC(=O)N1CCC2(CC(N3CCC(c4nccn4CC(=O)O)CC3)C2)C1 (single isomer, unassigned) [1-53 Isomer 2, (2-{1-[6-(ethoxycarbonyl)-6-azaspiro[3.4]oct-2-yl]piperidin-4-yl}-1H-imidazol-1-yl)acetic acid] | – | – |

| Structure (SMILES) | EC50 [1] [nM] | EC50 [2] [nM] | Emax [1, 3] [%] | Emax [2, 4] [%] | % Emax cf. ACh, M1 ([1]; relative to ACh) [%] | % Emax cf. ACh, M4 ([2]; relative to ACh) [%] | Emax ([1]; read-out: % Emax cf. ACh, M1) [%] | Emax ([2]; read-out: % Emax cf. ACh, M4) [%] |
| --- | --- | --- | --- | --- | --- | --- | --- | --- |
| CCOC(=O)N1CCC2(CC(N3CCC(OC)(c4nccn4C)CC3)C2)C1 (single isomer, unassigned) [1-40 Isomer 2, ethyl 2-[4-methoxy-4-(1-methyl-1H-imidazol-2-yl)piperidin-1-yl]-6-azaspiro[3.4]octane-6-carboxylate] | > 20000 | 158 | – | – | – | – | 904 | 50 |
